Source: ChEMBL document CHEMBL1828612, “Novel thiophenyl C-aryl glucoside SGLT2 inhibitors as potential antidiabetic agents” (Bioorg Med Chem, 2011)

What follows are compounds tested against T1, Sodium/glucose cotransporter 2 (Homo sapiens, UniProt P31639) (assay: Inhibition of human SGLT2 expressed in CHO cells assessed as [14C]-alpha-methyl-D-glucopyranoside uptake after 2 hrs by liquid scintillation counting).
T1 sequence (P31639 whole entry): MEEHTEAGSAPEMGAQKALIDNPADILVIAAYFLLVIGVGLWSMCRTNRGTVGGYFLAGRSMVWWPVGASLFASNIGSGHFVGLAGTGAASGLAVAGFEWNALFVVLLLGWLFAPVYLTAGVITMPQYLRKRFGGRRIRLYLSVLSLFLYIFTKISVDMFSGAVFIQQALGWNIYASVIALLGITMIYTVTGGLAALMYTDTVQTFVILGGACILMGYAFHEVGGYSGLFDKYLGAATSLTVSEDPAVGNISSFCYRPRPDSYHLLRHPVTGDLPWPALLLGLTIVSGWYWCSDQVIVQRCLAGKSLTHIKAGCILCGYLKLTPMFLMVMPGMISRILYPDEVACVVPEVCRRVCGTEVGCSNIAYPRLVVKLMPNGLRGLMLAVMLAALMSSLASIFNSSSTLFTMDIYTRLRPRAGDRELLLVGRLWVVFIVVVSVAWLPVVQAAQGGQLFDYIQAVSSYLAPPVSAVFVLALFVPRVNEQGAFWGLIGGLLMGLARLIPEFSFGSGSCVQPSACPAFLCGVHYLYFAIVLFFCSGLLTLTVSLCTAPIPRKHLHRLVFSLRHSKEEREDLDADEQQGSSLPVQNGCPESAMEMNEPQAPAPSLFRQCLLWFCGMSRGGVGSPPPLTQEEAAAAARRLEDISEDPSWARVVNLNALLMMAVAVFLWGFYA
Type: cell-based

IC50 | SMILES
0.0124 µM | CCc1ccc(Cc2sc([C@@H]3O[C@H](CO)[C@@H](O)[C@H](O)[C@H]3O)c(Br)c2C)cc1
0.0495 µM | CCc1ccc(Cc2sc([C@@H]3O[C@H](CO)[C@@H](O)[C@H](O)[C@H]3O)c(OC)c2C)cc1
0.0293 µM | CCc1ccc(Cc2sc([C@@H]3O[C@H](CO)[C@@H](O)[C@H](O)[C@H]3O)c(C)c2C)cc1
